Tests used:
Assay in all cases: competition with DK-01 photoaffinity labelling, in-gel fluorescence
Type in all cases: biochemical
Conditions in all cases: 200 uM inhibitor preincubated, 10 uM DK-01; leaf extract; band assigned by knockout
[1] = target: T1, PREP1 (Arabidopsis thaliana, UniProt Q9LJL3)
T1 construct: assigned by knockout lines; locus printed At3g18170, probably a misprint for At3g19170
T1 sequence (Q9LJL3 86-1080): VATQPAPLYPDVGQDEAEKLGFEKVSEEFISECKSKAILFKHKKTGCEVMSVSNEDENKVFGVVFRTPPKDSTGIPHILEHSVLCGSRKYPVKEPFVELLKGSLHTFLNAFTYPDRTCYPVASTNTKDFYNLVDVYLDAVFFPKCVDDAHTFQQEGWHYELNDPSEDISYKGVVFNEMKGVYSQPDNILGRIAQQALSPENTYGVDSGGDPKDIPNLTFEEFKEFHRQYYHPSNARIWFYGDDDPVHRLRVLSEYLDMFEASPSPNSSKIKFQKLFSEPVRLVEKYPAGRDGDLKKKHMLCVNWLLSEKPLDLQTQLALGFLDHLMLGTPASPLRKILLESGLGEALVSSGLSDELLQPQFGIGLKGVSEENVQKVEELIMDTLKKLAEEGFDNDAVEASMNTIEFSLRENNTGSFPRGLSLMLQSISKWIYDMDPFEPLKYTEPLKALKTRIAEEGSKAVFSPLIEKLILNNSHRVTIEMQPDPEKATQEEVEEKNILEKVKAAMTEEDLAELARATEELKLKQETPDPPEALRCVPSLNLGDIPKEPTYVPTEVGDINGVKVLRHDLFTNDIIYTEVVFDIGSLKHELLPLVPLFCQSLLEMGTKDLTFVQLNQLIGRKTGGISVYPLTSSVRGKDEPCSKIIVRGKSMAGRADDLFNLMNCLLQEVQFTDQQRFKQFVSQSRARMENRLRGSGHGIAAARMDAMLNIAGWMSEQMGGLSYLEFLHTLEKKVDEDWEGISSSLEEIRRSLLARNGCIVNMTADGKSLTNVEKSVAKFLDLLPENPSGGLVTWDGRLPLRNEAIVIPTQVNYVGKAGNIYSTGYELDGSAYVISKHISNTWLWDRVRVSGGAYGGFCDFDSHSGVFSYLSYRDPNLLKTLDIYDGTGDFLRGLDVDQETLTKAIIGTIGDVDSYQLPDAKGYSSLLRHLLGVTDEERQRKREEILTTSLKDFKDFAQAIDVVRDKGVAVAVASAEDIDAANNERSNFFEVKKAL

[2] = target: T2, APM1 (Arabidopsis thaliana, UniProt Q8VZH2)
T2 construct: assigned by mutant lines
T2 sequence (Q8VZH2 1-879): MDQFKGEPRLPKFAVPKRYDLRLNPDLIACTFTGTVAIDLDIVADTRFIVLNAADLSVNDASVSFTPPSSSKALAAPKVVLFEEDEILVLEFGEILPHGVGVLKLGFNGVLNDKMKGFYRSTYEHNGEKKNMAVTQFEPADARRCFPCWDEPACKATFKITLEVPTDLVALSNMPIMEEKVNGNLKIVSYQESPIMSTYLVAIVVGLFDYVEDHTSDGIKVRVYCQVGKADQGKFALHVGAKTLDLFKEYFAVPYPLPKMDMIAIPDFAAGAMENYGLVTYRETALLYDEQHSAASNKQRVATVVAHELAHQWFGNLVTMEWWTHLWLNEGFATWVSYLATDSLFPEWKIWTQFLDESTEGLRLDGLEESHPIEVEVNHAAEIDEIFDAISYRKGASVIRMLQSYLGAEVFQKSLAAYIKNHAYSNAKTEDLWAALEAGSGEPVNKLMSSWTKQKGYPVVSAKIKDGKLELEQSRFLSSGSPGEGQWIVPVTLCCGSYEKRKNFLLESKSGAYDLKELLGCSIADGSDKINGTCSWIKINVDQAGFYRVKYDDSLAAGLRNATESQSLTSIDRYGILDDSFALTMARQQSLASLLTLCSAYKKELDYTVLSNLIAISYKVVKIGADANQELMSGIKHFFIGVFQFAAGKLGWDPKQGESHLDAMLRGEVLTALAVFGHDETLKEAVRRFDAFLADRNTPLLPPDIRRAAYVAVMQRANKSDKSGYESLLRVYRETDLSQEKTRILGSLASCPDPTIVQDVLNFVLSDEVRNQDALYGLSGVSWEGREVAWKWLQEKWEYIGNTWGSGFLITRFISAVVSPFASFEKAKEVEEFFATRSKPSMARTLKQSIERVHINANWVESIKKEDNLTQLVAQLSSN

[3] = target: T3, TOP1 (Arabidopsis thaliana, UniProt Q94AM1)
T3 construct: gene OOP; assigned by knockout lines
T3 sequence (Q94AM1 83-791): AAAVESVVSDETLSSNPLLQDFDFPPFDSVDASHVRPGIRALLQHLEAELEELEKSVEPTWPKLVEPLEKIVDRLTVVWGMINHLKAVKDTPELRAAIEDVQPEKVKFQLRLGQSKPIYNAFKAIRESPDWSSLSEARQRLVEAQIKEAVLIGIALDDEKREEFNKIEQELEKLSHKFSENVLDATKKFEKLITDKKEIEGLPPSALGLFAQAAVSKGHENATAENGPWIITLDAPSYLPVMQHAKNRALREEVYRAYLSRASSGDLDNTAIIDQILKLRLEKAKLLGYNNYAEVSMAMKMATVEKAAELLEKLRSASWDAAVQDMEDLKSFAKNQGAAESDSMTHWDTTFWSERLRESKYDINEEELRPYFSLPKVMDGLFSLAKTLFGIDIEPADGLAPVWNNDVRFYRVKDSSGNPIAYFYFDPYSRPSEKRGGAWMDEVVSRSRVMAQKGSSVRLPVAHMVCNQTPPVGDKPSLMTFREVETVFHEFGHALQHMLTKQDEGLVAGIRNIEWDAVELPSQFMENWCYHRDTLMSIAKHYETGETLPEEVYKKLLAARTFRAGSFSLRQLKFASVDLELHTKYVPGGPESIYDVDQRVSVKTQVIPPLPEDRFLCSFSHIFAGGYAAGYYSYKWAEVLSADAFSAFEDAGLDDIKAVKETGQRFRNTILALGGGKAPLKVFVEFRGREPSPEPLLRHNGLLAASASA

Row | Structure (SMILES) | competition with DK-01 photoaffinity labelling, in-gel fluorescence [1] | competition with DK-01 photoaffinity labelling, in-gel fluorescence [2] | competition with DK-01 photoaffinity labelling, in-gel fluorescence [3]
1 | CNC(=O)[C@H](Cc1c[nH]c2ccccc12)NC(=O)[C@@H](CC(=O)NO)CC(C)C [ilomastat] | PREP1 is actinonin/ilomastat‐sensitive |  | 
2 | CNC(=O)[C@@H](NC(=O)[C@H](CC(C)C)[C@H](O)C(=O)NO)C(C)(C)C [marimastat] |  | APM1 is marimastat/actinonin‐sensitive and active at pH5 and above | 
3 | CCCCC[C@H](CC(=O)NO)C(=O)N[C@H](C(=O)N1CCC[C@H]1CO)C(C)C [actinonin] | PREP1 is actinonin/ilomastat‐sensitive | APM1 is marimastat/actinonin‐sensitive and active at pH5 and above | TOP1 labelling is actinonin‐sensitive and requires a neutral pH

Source: paper PMC9322406, “Broad‐range metalloprotease profiling in plants uncovers immunity provided by defence‐related metalloenzyme” (The New Phytologist, 2022)
